Measured values reported in patent US20040192641A1, “Special preparation of anticancer drugs made by novel nanotechnology” (priority 2003, published 2004).

What was measured:
[1] = tested on: Human leukemia cells (HL-60); test: Apoptosis of cancer cells (HL-60); format: cell-based
Procedure: Human leukemia cells (HL-60) were grown in RPMI Medium 1640 supplemented with 10% (v/v) heat-inactivated FBS (56° C. for 30 min) at 37° C. in a humidified 95% air/5% CO2 atmosphere. Cells were seeded at a level of 2×10^5 cells/ml. Cells were allowed to attain a maximum density of 1.2×10^6 cells/ml before being passed by dilution into fresh medium to a concentration of 2×10^5 cells/ml.
Apoptosis determined by the following process: Cell pellets containing 5×10^6 cells were fixed with 2.5% glutaraldehyde in cacodylate buffer (pH 7.4), dehydrated through graded alcohol, and infiltrated with LX-112 epoxy resin. After overnight polymerization at 60° C. 1-μm sections were cut with glass knives using a LKB Nova microtome. The sections were stained with 1% toluidine blue and coverslipped.
DNA electrophoresis: Untreated and treated HL-60 cells collected by centrifugation, washed in phosphate buffered saline and re-suspended at a concentration of 5×10^6 cells and 0.1% RNase A. The mixture was incubated at 37° C. for 30 min and then incubated for an additional 30 min at 37° C. with 1 ml protease K. Buffer was added and 25 μl of the tube content transferred to the Horizontal 1.5% agarose gel electrophoresis was performed at 2 V/cm. DNA in gels visualized under UV light after staining with ethidium Bromide (5 μg/ml).
DNA fragmentation assays: DNA cleavage was performed, quantitation of fractional solubilized DNA by diphenylamine assay and the percentage of cells harboring fragmented DNA determined by in labeling techniques. For the diphenylamine assay, 5×10^6 cells were lysed in 0.5 mL lysis buffer (5 mmol/L Tris-HCl, 20 mmol/L DTA, and 0.5% Triton X-100, pH 8.0) at 4° C. Lysates were centrifuged (15,000 g) for separation of high molecular weight DNA (pellet) and DNA cleavage products (supernatant). DNA was precipitated with 0.5 N perchloric acid and quantitated using diphenylamine reagent. The cell cycle distribution was determined 4 hours after addition of drug and represents mean±SD of 5 independent experiments.
Human promyelocytic leukemia cells (HL-60) were grown in RPMI Medium 1640 supplemented with 10% (v/v) heat-inactivated FBS (56° C. for 30 min) at 37° C. in a humidified 95% air/5% CO2 atmosphere. Cells were seeded at a level of 2×10^5 cells/ml. Cells were allowed to attain a maximum density of 1.2×10^6 cells/ml before being passed by dilution into fresh medium to a concentration of 2×10^5 cells/ml. Apoptosis determined by the following process: Cell pellets containing 5×10^6 cells ere fixed with 2.5% glutaraldehyde in cacodylate buffer (pH 7.4), dehydrated through graded alcohol, and infiltrated with LX-112 epoxy resin. After overnight polymerization at 60° C. 1-μm sections were cut with glass knives using a LKB Nova microtome. The sections were stained with 1% toluidine blue and coverslipped. […]
DNA fragmentation assays: DNA cleavage was performed, quantitation of fractional solubilized DNA by diphenylamine assay and the percentage of cells harboring fragmented DNA determined by in labeling techniques. […] DNA was precipitated with 0.5N perchloric acid and quantitated using diphenylamine reagent. […]

Walker 256 = test: Growth of transplanted tumor, Walker 256 (tumor weight); format: in vivo, mice; settings: 20 mg/kg i.p. from second day, tumor weight on 12th day
Procedure: Male mice, weight 20-22 g, were used in the experiment. 1×10^7 tumor cells were injected to mouse and PK-HHT-NP injected intraperitoneally began second day. All mice were sacrificed on the 12th days, isolated the tumor and weighed and calculated the inhibition rate of tumor weight.
Male mice, weight 20-22 g, were used in the experiment. 1×10^7 tumor cells were injected to mouse and CUR and PK-CUR-NP injected intraperitoneally began second day. All mice were sacrificed on the 12th days, isolated the tumor and weighed and calculated the inhibition rate of tumor weight.
Male mice, weight 20-22 g, were used in the experiment. 1×10^7 tumor cells were injected to mouse and ELE injected intraperitoneally began second day. All mice were sacrificed on the 12th days, isolated the tumor and weighed and calculated the inhibition rate of tumor weight.
Male mice, weight 20-22 g, were used in the experiment. 1×10^7 tumor cells were injected to mouse and CPT injected intraperitoneally began second day. All mice were sacrificed on the 12th days, isolated the tumor and weighed and calculated the inhibition rate of tumor weight.

[2] = tested on: NNK-induced lung tumorigenesis (pulmonary adenomas); test: NNK-induced lung tumorigenesis; format: in vivo, mice; settings: 20 mg/kg daily by injection; 10 μmol NNK i.p.; sixteen weeks
Procedure: The capacity of tobacco-specific nitrosamine 4-(methylnitrosamino)-1-(3-pyridyl)-1-butanone (NNK) to induce tumor incidence was recognized.
Every group had 20 mice. For treatment group, each mouse was gave free CUR and PK-CUR-NP by injection at dose of 20 mg/kg daily. For control group, each mouse was gave same volume of physiological saline. Three days later, mice were gave 10 μmol NNK (in 0.1 ml saline) by i.p. injection. Sixteen weeks after these treatments the mice were killed and pulmonary adenomas were counted. The statistical significance of bioassay data was determined by student's test.
Every group had 20 mice. For treatment group, each mouse was gave ELE and PK-ELE-NP by injection at dose of 20 mg/kg daily. For control group, each mouse was gave same volume of physiological saline. Three days later, mice were gave 10 μmol NNK (in 0.1 ml saline) by i.p. injection. Sixteen weeks after these treatments the mice were killed and pulmonary adenomas were counted. The statistical significance of bioassay data was determined by student's test.
Every group had 20 mice. For treatment group, each mouse was gave free CPT and PK-CPT-NP by injection at dose of 20 mg/kg daily. For control group, each mouse was gave same volume of physiological saline. Three days later, mice were gave 10 μmol NNK (in 0.1 ml saline) by i.p. injection. Sixteen weeks after these treatments the mice were killed and pulmonary adenomas were counted. The statistical significance of bioassay data was determined by student's test.

Subacute toxicity test = format: in vivo; settings: 50 times the clinical dose, continually for two months
[3] = mice, I.P. (injection in abdominal cavity)

Compound | Apoptosis (%) ([1]; concentration not given) | Inhibition (%) of transplanted tumor (Walker 256) | Tumor incidence (%) [2] | subacute toxicity: side effects (Subacute toxicity test) | LD50 (Acute toxicity LD50; mouse, in vivo, ip) | LD50 (Acute toxicity LD50; [3]) | Apoptosis (%) ([1]; Concentration 20 μm) | Apoptosis (%) ([1]; Example 59)
CC[C@@]1(O)C(=O)OCc2c1cc1n(c2=O)Cc2cc3ccccc3nc2-1 [CPT, Camptothecin] | 65.8 ± 9.8% | 71.8 ± 10.4% | 36.2 ± 6.2% | no side effects had been observed | 76 mg/kg | – | – | –
C=C1C[C@@]2(O)O[C@@]3(C[C@H]2C(C)C)[C@@H](C)CC[C@@H]13 [CUR, Curcumol] | 68.3 ± 7.8% | 59.8 ± 8.5% | 35.8 ± 5.8% | no side effects had been observed | – | 325 mg/kg | – | –
COC(=O)C[C@](O)(CCCC(C)(C)O)C(=O)O[C@@H]1C(OC)=C[C@]23CCCN2CCc2cc4c(cc2[C@H]13)OCO4 [HHT, Homoharringtonine] | – | 83 ± 9% | – | – | 3.3 ± 0.29 mg/kg | – | 68.3 ± 7.6% | 68.3 ± 7.6%
Eelemene | 69.2 ± 9.1% | 60.8 ± 8.9% | 34.8 ± 6.2% | no side effects had been observed | – | 318 mg/kg | – | –
